Reference: article PMC10066365, “Nemacol is a small molecule inhibitor of C. elegans vesicular acetylcholine transporter with anthelmintic potential” (Nature Communications, 2023)
Several values for one entry are separate records, joined by “and”; a condition that tells them apart may be missing. Equal entries are not always repeated.

Tested on: C. elegans
Test: C. elegans motor phenotype scoring on solid media (Punc/jerky-unc, coiled, paralyzed), wild-type young adults
Type: in vivo, Caenorhabditis elegans
Conditions: for Fraction Paralyzed / Fraction Punc / Fraction Coiled: single replicate; for AVERAGES Fraction Coiled / AVERAGES Fraction Paralyzed / AVERAGES Fraction Punc: mean of 3 replicates
[1] = 60uM, one hour, young adults, 20 animals per trial, single replicate counts

CCC1CCC(N2CCN(c3ccc([N+](=O)[O-])cc3)CC2)CC1 (centres unmarked) [Nemacol-2]
Fraction Paralyzed (30 μM, 90 min, adults): 0.278 and 0.167
Fraction Punc (30 μM, 90 min, adults): 0.444 and 0.556 and 0.667
C1 (number of animals) (30 μM, 120 min, adults): 3 and 2
C2 (number of animals) (30 μM, 120 min, adults): 1 and 2
NP (number of animals) (30 μM, 120 min, adults): 0
AVERAGES Fraction Coiled (30 μM, 120 min, adults): 0.2
AVERAGES Fraction Paralyzed (30 μM, 120 min, adults): 0.278
AVERAGES Fraction Punc (30 μM, 120 min, adults): 0.5
Fraction Coiled (30 μM, 120 min, adults): 0.222 and 0.167
Fraction Paralyzed (30 μM, 120 min, adults): 0.556 and 0.222 and 0.0556
Fraction Punc (30 μM, 120 min, adults): 0.222 and 0.6 and 0.7
NP (number of animals) (30 μM, 240 min, adults): 2 and 3 and 4
P (number of animals) (30 μM, 240 min, adults): 4 and 2
Punc (number of animals) (30 μM, 240 min, adults): 11 and 12
AVERAGES Fraction Coiled (30 μM, 240 min, adults): 0.0556
AVERAGES Fraction Paralyzed (30 μM, 240 min, adults): 0.148
AVERAGES Fraction Punc (30 μM, 240 min, adults): 0.6
Fraction Coiled (30 μM, 240 min, adults): 0.0556 and 0.111 and 0.0
Fraction Paralyzed (30 μM, 240 min, adults): 0.222 and 0.111
Fraction Punc (30 μM, 240 min, adults): 0.6 and 0.667
C2 (number of animals) (30 μM, 360 min, adults): 0
NP (number of animals) (30 μM, 360 min, adults): 6 and 9 and 10
Punc (number of animals) (30 μM, 360 min, adults): 5 and 7 and 8
AVERAGES Fraction Coiled (30 μM, 360 min, adults): 0.0196
AVERAGES Fraction Paralyzed (30 μM, 360 min, adults): 0.135
AVERAGES Fraction Punc (30 μM, 360 min, adults): 0.376
Fraction Coiled (30 μM, 360 min, adults): 0.0588 and 0.0
Fraction Paralyzed (30 μM, 360 min, adults): 0.3 and 0.111 and 0.0
Fraction Punc (30 μM, 360 min, adults): 0.3 and 0.4 and 0.444
C1 (number of animals) (60 μM, 30 min, adults): 3 and 4
C2 (number of animals) (60 μM, 30 min, adults): 2
NP (number of animals) (60 μM, 30 min, adults): 0
Punc (number of animals) (60 μM, 30 min, adults): 7 and 10 and 12
AVERAGES Fraction Coiled (60 μM, 30 min, adults): 0.3
AVERAGES Fraction Paralyzed (60 μM, 30 min, adults): 0.154
AVERAGES Fraction Punc (60 μM, 30 min, adults): 0.545
Fraction Coiled (60 μM, 30 min, adults): 0.3 and 0.333 and 0.278
Fraction Paralyzed (60 μM, 30 min, adults): 0.3 and 0.111 and 0.0556
Fraction Punc (60 μM, 30 min, adults): 0.4 and 0.556 and 0.667
C2 (number of animals) (60 μM, 60 min, adults): 2 and 4 and 3
NP (number of animals) (60 μM, 60 min, adults): 0
P (number of animals) (60 μM, 60 min, adults): 9 and 7 and 8
Punc (number of animals) (60 μM, 60 min, adults): 4 and 6
AVERAGES Fraction Coiled (60 μM, 60 min, adults): 0.259
AVERAGES Fraction Paralyzed (60 μM, 60 min, adults): 0.444
AVERAGES Fraction Punc (60 μM, 60 min, adults): 0.3
Fraction Coiled (60 μM, 60 min, adults): 0.278 and 0.222
Fraction Paralyzed (60 μM, 60 min, adults): 0.5 and 0.4 and 0.444
Fraction Punc (60 μM, 60 min, adults): 0.222 and 0.333
C1 (number of animals) (60 μM, 90 min, adults): 3 and 4
C2 (number of animals) (60 μM, 90 min, adults): 3 and 4
NP (number of animals) (60 μM, 90 min, adults): 0
AVERAGES Fraction Coiled (60 μM, 90 min, adults): 0.37
AVERAGES Fraction Paralyzed (60 μM, 90 min, adults): 0.426
AVERAGES Fraction Punc (60 μM, 90 min, adults): 0.2
Fraction Coiled (60 μM, 90 min, adults): 0.333 and 0.4
Fraction Paralyzed (60 μM, 90 min, adults): 0.6 and 0.222 and 0.444
Fraction Punc (60 μM, 90 min, adults): 0.0556 and 0.4 and 0.167
C1 (number of animals) (60 μM, 120 min, adults): 2
NP (number of animals) (60 μM, 120 min, adults): 0
AVERAGES Fraction Coiled (60 μM, 120 min, adults): 0.3
AVERAGES Fraction Paralyzed (60 μM, 120 min, adults): 0.4
AVERAGES Fraction Punc (60 μM, 120 min, adults): 0.3
Fraction Coiled (60 μM, 120 min, adults): 0.222 and 0.444
Fraction Paralyzed (60 μM, 120 min, adults): 0.6 and 0.333 and 0.278
Fraction Punc (60 μM, 120 min, adults): 0.167 and 0.444 and 0.278
NP (number of animals) (60 μM, 240 min, adults): 0
AVERAGES Fraction Coiled (60 μM, 240 min, adults): 0.167
AVERAGES Fraction Paralyzed (60 μM, 240 min, adults): 0.352
AVERAGES Fraction Punc (60 μM, 240 min, adults): 0.5
Fraction Coiled (60 μM, 240 min, adults): 0.167
Fraction Paralyzed (60 μM, 240 min, adults): 0.6 and 0.222
Fraction Punc (60 μM, 240 min, adults): 0.222 and 0.6
Punc (number of animals) (60 μM, 360 min, adults): 6 and 11 and 10
Remark on animals at 360 min (60 μM, 360 min, adults): look dead
AVERAGES Fraction Coiled (60 μM, 360 min, adults): 0.0556
AVERAGES Fraction Paralyzed (60 μM, 360 min, adults): 0.4
AVERAGES Fraction Punc (60 μM, 360 min, adults): 0.5
Fraction Coiled (60 μM, 360 min, adults): 0.0556 and 0.111 and 0.0
Fraction Paralyzed (60 μM, 360 min, adults): 0.6 and 0.278
Fraction Punc (60 μM, 360 min, adults): 0.333 and 0.6 and 0.556
atypical locomotion (number of animals) [1]: 3 and 6 and 1
coiled (number of animals) [1]: 9 and 6 and 3 and 1
no phene (number of animals) [1]: 0
paralyzed (number of animals) [1]: 8 and 14 and 18
EC50 (Caenorhabditis elegans, 1 h, Fig. 1, dose-response at 60 min, wild-type young adults, +/- 95% CI, read-out: EC50): 6.6 ± 0.4 µM
